Earlier results, collected in US8715728B2, “Extended release pellet formulation containing pramipexole or a pharmaceutically acceptable salt thereof” (Boehringer Ingelheim International GmbH, priority 2004, dated 2014).
Counter-ions that a name gives are not always drawn.

What was measured:
[1] = in vivo
[2] = not given; remark: listed apart in the source

For `CCCN[C@H]1CCc2nc(N)sc2C1` [Pramipexole, (S)-2-amino-4,5,6,7-tetrahydro-6-(propylamino)benzothiazole], the stability in solution (in solution, light) is given as “light sensitive”, the “stability in the solid state” value (solid state) is given as “very stable” and the kinetics [1] is given as “linear kinetics”.
In the case of `CCCN[C@H]1CCc2nc(N)sc2C1` [Pramipexole dihydrochloride monohydrate, pramipexole dihydrochloride monohydrate], the “solubility in buffer media” value ([2]; between pH 2 and pH 7.4) is listed as “above 10 mg/ml” and the Water solubility ([2]; water) is listed as “more than 20 mg/mL”.
